Measured values from patent publication US8097733B2, “Pyrazole derivatives as 5-LO-inhibitors” (Pfizer Inc., priority 2007, dated 2012).

Experiments:
recombinant human 5-LOX = biological target: T1, recombinant human 5-LOX (Homo sapiens, UniProt P09917); assay: Fluorescence Intensity 5-LOX Enzyme Assay; type: biochemical; settings: crude lysate of recombinant human 5-LOX; highest inhibitor concentration tested typically 25 μM
T1 sequence (P09917 1-674): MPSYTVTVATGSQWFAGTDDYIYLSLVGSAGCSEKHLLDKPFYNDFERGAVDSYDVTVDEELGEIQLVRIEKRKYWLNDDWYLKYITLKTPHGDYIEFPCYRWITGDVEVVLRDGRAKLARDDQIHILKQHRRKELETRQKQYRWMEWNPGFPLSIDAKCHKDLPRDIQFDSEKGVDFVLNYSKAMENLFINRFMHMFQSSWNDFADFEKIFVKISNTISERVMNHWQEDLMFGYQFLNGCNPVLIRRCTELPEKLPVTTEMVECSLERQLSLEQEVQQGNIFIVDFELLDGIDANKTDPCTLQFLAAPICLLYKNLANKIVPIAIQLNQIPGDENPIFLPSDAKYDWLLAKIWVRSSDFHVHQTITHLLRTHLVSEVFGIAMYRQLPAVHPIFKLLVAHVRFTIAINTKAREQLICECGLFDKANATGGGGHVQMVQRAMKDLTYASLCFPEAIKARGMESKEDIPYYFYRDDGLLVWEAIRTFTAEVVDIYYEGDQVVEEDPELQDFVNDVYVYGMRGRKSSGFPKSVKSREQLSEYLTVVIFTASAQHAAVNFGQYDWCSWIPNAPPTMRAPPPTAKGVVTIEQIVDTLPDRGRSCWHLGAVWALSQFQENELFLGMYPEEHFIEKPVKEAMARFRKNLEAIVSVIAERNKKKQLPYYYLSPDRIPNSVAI
Text: Bio Data Assays for Allergic and Non Allergic Airways Diseases Fluorescence Intensity 5-LOX Enzyme Assay
The enzyme assay is based on the oxidation of the non-fluorescent compound 2′7′-dichlorodihydrofluorescein diacetate (H2DCFDA) to the fluorescent 2′,7′-dichlorofluorescein by 5-LOX in an arachidonic acid-dependent reaction. Ester cleavage of the acetate groups of the substrate H2DCFDA must occur prior to oxidation. This is achieved through use of a crude cell lysate preparation of recombinant human 5-LOX. The enzyme assay ([…]) contained 50 mM Tris (pH 7.5), 2 mM CaCl2, 2 mM EDTA, 3 μM arachidonic acid (Nu-Chek Prep; #S-1133), 10 μM ATP, 10 μM H2DCFDA (Invitrogen; #D399), inhibitor (varying concentration) and recombinant human 5-LOX enzyme (1.25 μL crude lysate per well).
Inhibitors (dissolved in DMSO) were plated into a 384-well assay plate (Corning #3654) at 1 μL followed by a 20 μL addition of a solution containing 5-LO enzyme and H2DCFDA. Enzyme and H2DCFDA were pre-incubated for 5 min to allow time for acetate group cleavage of the dye prior to addition to the assay plate. After a 10 min pre-incubation of inhibitor and enzyme/dye mix, the assay was initiated by the addition of a substrate solution containing arachidonic acid and ATP. The enzymatic reaction was run for 20 min at room temperature and terminated by the addition of 40 μL of acetonitrile. Assay plates were read in a plate reader using standard wavelengths for fluorescein. IC50s of inhibitors were calculated using a 4-parameter fit using 7 inhibitor concentrations in duplicate with 3-fold serial dilutions. Controls on each plate included no inhibitor (zero percent effect) and 25 μM C J-13610 (one hundred percent effect). The highest inhibitor concentration tested was typically 25 μM. The final DMSO concentration in the assay was 2.5%.

[1] = tested on: human whole blood (leukotriene and prostaglandin levels); assay: Eicosanoid production from human whole blood; type: cell-based; settings: human whole blood stimulated with calcium ionophore A23187 and arachidonic acid; ELISA
Procedure: Human whole blood is collected in 10 ml heparin tubes (Vacutainer, Becton Dickenson). Collected blood is pooled and 80 μL is dispensed into each well of 384 well polypropylene plates. A PlateMate is used to add 2 μL of compound solution in DMSO to the 80 μL of blood in the polypropylene plates. The plate, with blood and compound added, is incubated at room temperature for 10 minutes. 2 μL of a calcimycin (800 ng/ml) (A23187 C-7522, Sigma) and arachidonic acid (30 μM) (NU-Chek PREP, INC. S-1133) solution in 60% ethanol is then added to the blood using a Micromultidrop. The plates are then incubated at 37° C. in a shallow water bath for 15 minutes. Plates are then spun at 800 g for 10 minutes at 4° C. Supernatant is removed and assayed by Elisa (Caymen Chemical).
Eicosanoid Production from Human Whole Blood:
Human whole blood was collected from healthy or asthmatic human donors in 10 ml heparinized tubes (Vacutainer tubes; Becton Dickenson, Franklin Lakes, N.J.). Collected blood was pooled and 80 μL was dispensed into each well of 384 well polypropylene plates using a Multi-prop™ 384-well dispenser (Titertek, Huntsville, Ala.). Varying concentrations of compounds were dissolved in DMSO then 2 μL/well was added to the blood using a PlateMate Plus™ automated pipetting station (Matrix Technologies, Hudson, N.H.). The compounds were preincubated with the blood at room temperature for 10 minutes followed by stimulation with 40 μM calcium ionophore (A23187, Sigma Chemical Co, St. Louis, Mo., Cat. # C-7522) and 30 μM arachidonic acid (S-1133, NU-Chek PREP, Inc., Elysian, MN, Cat. # S-1133) dissolved in 60% ethanol. After 15 min incubation at 37° C. in a shallow water bath, the blood was centrifuged at 8009 for 10 minutes at 4° C., the supernatants collected, and leukotriene and prostaglandin levels measured by ELISA according to the manufacturer's directions (Cayman Chemical Company, Ann Arbor, Mich.). The assay was performed at a final concentration of 2.5% DMSO.

## Cc1cc(Sc2cccc(C3(C(N)=O)CCOCC3)c2)ccc1-c1ccnn1C [Example 14, 4-(3-{[3-methyl-4-(1-methyl-1H-pyrazol-5-yl)phenyl]thio}phenyl)tetrahydro-2H-pyran-4-carboxamide]
Recombinant human 5-LOX
  IC50: 110 nM
[1]
  IC50: 447 nM

## CNC(=O)C1(c2cc(F)cc(Sc3ccc(-c4ccnn4C)cc3)c2)CCOCC1 [Example 18, 4-(3-fluoro-5-{[4-(1-methyl-1H-pyrazol-5-yl)phenyl]thio}-phenyl)-N-methyltetrahydro-2H-pyran-4-carboxamide]
Recombinant human 5-LOX
  IC50: 369 nM
[1]
  IC50: 596 nM

## C[C@H]1C[C@@](C#N)(c2cccc(Sc3ccc(-c4ccnn4C)cc3F)c2F)CCO1 [Example 25]
Recombinant human 5-LOX
  IC50: 32.9 nM
[1]
  IC50: 83.6 nM

## C[C@H]1C[C@@](C(N)=O)(c2cccc(Sc3ccc(-c4ccnn4C)cc3F)c2F)CCO1 [Example 26, (2S,4R)-4-(2-fluoro-3-(2-fluoro-4-(1-methyl-1H-pyrazol-5-yl)phenylthio)phenyl)-2-methyl-tetrahydro-2H-pyran-4-carboxamide]
Recombinant human 5-LOX
  IC50: 28.4 nM
[1]
  IC50: 690 nM

## C[C@H]1C[C@@](C(N)=O)(c2cccc(Sc3ccc(-c4ccnn4C)c(F)c3)c2)CCO1 [Example 30, (2S,4R)-4-(3-(3-fluoro-4-(1-methyl-1H-pyrazol-5-yl)phenylthio)phenyl)-2-methyl-tetrahydro-2H-pyran-4-carboxamide]
Recombinant human 5-LOX
  IC50: 14 nM
[1]
  IC50: 200 nM

## C[C@H]1C[C@@](C(N)=O)(c2cccc(Sc3ccc(-c4ccnn4C)c(F)c3)c2F)CCO1 [Example 31, (2S,4R)-4-(2-fluoro-3-(3-fluoro-4-(1-methyl-1H-pyrazol-5-yl)phenylthio)phenyl)-2-methyl-tetrahydro-2H-pyran-4-carboxamide]
Recombinant human 5-LOX
  IC50: 15.5 nM
[1]
  IC50: 337 nM

## C[C@H]1C[C@@](C(N)=O)(c2cc(F)cc(Sc3ccc(-c4ccnn4C)c(F)c3)c2)CCO1 [Example 32, (2S,4R)-4-(3-fluoro-5-(3-fluoro-4-(1-methyl-1H-pyrazol-5-yl)phenylthio)phenyl)-2-methyl-tetrahydro-2H-pyran-4-carboxamide]
Recombinant human 5-LOX
  IC50: 16.8 nM
[1]
  IC50: 232 nM

## Cn1nccc1Cc1ccc(Sc2cccc(C3(C(N)=O)CCOCC3)c2)cc1 [Example 35, 4-[3-({4-[(1-methyl-1H-pyrazol-5-yl)methyl]phenyl}thio)phenyl]tetrahydro-2H-pyran-4-carboxamide]
Recombinant human 5-LOX
  IC50: 313 nM
[1]
  IC50: 769 nM

## Cn1nccc1C(=O)c1ccc(Sc2cccc(C3(C(N)=O)CCOCC3)c2)cc1Cl [Example 36]
Recombinant human 5-LOX
  IC50: 188 nM
[1]
  IC50: 466 nM

## Cn1nccc1C(=O)c1ccc(Sc2cccc(C3(C(N)=O)CCOCC3)c2)cc1C(F)(F)F [Example 37, 4-[3-({4-[(1-methyl-1H-pyrazol-5-yl)carbonyl]-3-(trifluoromethyl)phenyl}thio)phenyl]tetrahydro-2H-pyran-4-carboxamide]
Recombinant human 5-LOX
  IC50: 60.7 nM
[1]
  IC50: 394 nM

## Cn1nccc1C(=O)c1ccc(Sc2cccc(C3(C(N)=O)CCOCC3)c2)cc1C#N [Example 38, 4-[3-({3-cyano-4-[(1-methyl-1H-pyrazol-5-yl)carbonyl]phenyl}thio)phenyl]tetrahydro-2H-pyran-4-carboxamide]
Recombinant human 5-LOX
  IC50: 469 nM
[1]
  IC50: 640 nM

## Cn1nccc1C(=O)c1ncc(Sc2cccc(C3(C(N)=O)CCOCC3)c2)cc1Cl [Example 42, 4-(3-(5-chloro-6-(1-methyl-1H-pyrazole-5-carbonyl)pyridin-3-ylthio)phenyl)-tetrahydro-2H-pyran-4-carboxamide]
Recombinant human 5-LOX
  IC50: 737 nM
[1]
  IC50: 851 nM

## COc1ccc(C2(C#N)CCOCC2)cc1Sc1ccc(-c2ccnn2C)cc1 [Example 43, 4-(4-methoxy-3-(4-(1-methyl-1H-pyrazol-5-yl)phenylthio)phenyl)-tetrahydro-2H-pyran-4-carbonitrile]
Recombinant human 5-LOX
  IC50: 575 nM
[1]
  IC50: 913 nM

## COc1ccc(C2(C(N)=O)CCOCC2)cc1Sc1ccc(-c2ccnn2C)cc1 [Example 44, 4-(4-methoxy-3-(4-(1-methyl-1H-pyrazol-5-yl)phenylthio)phenyl)-tetrahydro-2H-pyran-4-carboxamide]
Recombinant human 5-LOX
  IC50: 138 nM
[1]
  IC50: 866 nM

## Cn1nccc1-c1ccc(Sc2cccc(C3(C#N)CCOCC3)c2F)c(F)c1 [Example 45, 4-(2-fluoro-3-(2-fluoro-4-(1-methyl-1H-pyrazol-5-yl)phenylthio)phenyl)tetrahydro-2H-pyran-4-carbonitrile]
Recombinant human 5-LOX
  IC50: 84 nM
[1]
  IC50: 33 nM

## Cn1nccc1-c1ncc(Sc2cccc(C3(C#N)CCOCC3)c2)cc1Cl [Example 47, 4-(3-{[5-chloro-6-(1-methyl-1H-pyrazol-5-yl)pyridin-3-yl]thio}phenyl)tetrahydro-2H-pyran-4-carbonitrile]
Recombinant human 5-LOX
  IC50: 7770 nM
[1]
  IC50: 676 nM

## Cn1nccc1-c1ccc(Sc2cccc(C3(C#N)CCOCC3)c2)cc1 [Example 49, 4-(3-{[4-(1-methyl-1H-pyrazol-5-yl)phenyl]thio}phenyl)tetrahydro-2H-pyran-4-carbonitrile]
Recombinant human 5-LOX
  IC50: 2710 nM
[1]
  IC50: 999 nM

## C[C@H]1C[C@@](C#N)(c2cccc([S+]([O-])c3ccc(-c4ccnn4C)cc3)c2F)CCO1 (stereo partly drawn) [Example 54, (2S,4R)-4-(2-fluoro-3-(4-(1-methyl-1H-pyrazol-5-yl)phenylsulfinyl)phenyl)-2-methyl-tetrahydro-2H-pyran-4-carbonitrile]
Recombinant human 5-LOX
  IC50: 447 nM
[1]
  IC50: 1160 nM

## CCc1cn[nH]c1-c1ccc(Sc2cccc(C3(C(N)=O)CCOCC3)c2)cc1 [Example 59, 4-(3-{[4-(4-ethyl-1H-pyrazol-5-yl)phenyl]thio}phenyl)tetrahydro-2H-pyran-4-carboxamide]
Recombinant human 5-LOX
  IC50: 816 nM
[1]
  IC50: 890 nM

## NC(=O)C1(c2cccc(Sc3ccc(-c4[nH]ncc4Br)cc3)c2)CCOCC1 [Example 60, 4-(3-{[4-(4-bromo-1H-pyrazol-5-yl)phenyl]thio}phenyl)tetrahydro-2H-pyran-4-carboxamide]
Recombinant human 5-LOX
  IC50: 608 nM
[1]
  IC50: 1400 nM

## Cn1nccc1Oc1ncc(Sc2cccc(C3(C(N)=O)CCOCC3)c2F)cc1Cl [Example 61, 4-[3-({5-chloro-6-[(1-methyl-1H-pyrazol-5-yl)oxy]pyridin-3-yl}thio)-2-fluorophenyl]tetrahydro-2H-pyran-4-carboxamide]
Recombinant human 5-LOX
  IC50: 327 nM
[1]
  IC50: 2160 nM

## Cn1nccc1C(=O)c1ccc(Sc2cccc(C3(C#N)CCOCC3)c2)cc1 [Example 62, 4-[3-({4-[(1-methyl-1H-pyrazol-5-yl)carbonyl]phenyl}thio)phenyl]tetrahydro-2H-pyran-4-carbonitrile]
Recombinant human 5-LOX
  IC50: 2160 nM
[1]
  IC50: 1490 nM
